Tests used:
Rattus norvegicus [1] = assay: In vivo inhibition of VAP-1 in Wistar rat plasma at 0.3 mg/kg, po after 6 hrs in presence of [14C]-benzylamine by liquid scintillation counting analysis relative to control; assay type: functional
[2] = Aqueous solubility of compound in Japanese pharmacopoeia second fluid at pH 6.8 at 130 uM after 20 hrs by HPLC analysis; assay type: physicochemical
CYP1A2 = target: T1, CYP1A2 (Homo sapiens, UniProt P05177); assay: Inhibition of CYP1A2 in human liver microsomes using phenacetin as substrate assessed as residual activity at 5 uM after 20 mins by HPLC analysis; assay type: ADME; settings: probe phenacetin, read-out: Activity
T1 sequence (P05177 whole entry): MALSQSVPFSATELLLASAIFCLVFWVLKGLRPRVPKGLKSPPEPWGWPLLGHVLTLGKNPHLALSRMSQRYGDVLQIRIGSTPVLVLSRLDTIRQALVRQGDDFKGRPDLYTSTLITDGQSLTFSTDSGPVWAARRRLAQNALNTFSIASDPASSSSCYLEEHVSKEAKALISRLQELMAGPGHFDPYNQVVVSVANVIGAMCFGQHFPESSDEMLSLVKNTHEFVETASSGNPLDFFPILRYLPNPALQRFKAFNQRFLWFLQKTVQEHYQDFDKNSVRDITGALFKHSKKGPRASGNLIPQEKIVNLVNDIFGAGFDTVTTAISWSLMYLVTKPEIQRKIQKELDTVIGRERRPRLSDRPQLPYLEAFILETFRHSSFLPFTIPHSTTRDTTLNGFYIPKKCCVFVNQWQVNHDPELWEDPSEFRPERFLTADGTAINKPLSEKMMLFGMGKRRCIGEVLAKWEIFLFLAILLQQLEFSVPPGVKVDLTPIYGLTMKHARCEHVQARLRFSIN

CYP2C8 = target: T2, CYP2C8 (Homo sapiens, UniProt P10632); assay: Inhibition of CYP2C8 in human liver microsomes using amodiaquine as substrate assessed as residual activity at 5 uM after 20 mins by HPLC analysis; assay type: ADME; settings: probe amodiaquine, read-out: Activity
T2 sequence (P10632 whole entry): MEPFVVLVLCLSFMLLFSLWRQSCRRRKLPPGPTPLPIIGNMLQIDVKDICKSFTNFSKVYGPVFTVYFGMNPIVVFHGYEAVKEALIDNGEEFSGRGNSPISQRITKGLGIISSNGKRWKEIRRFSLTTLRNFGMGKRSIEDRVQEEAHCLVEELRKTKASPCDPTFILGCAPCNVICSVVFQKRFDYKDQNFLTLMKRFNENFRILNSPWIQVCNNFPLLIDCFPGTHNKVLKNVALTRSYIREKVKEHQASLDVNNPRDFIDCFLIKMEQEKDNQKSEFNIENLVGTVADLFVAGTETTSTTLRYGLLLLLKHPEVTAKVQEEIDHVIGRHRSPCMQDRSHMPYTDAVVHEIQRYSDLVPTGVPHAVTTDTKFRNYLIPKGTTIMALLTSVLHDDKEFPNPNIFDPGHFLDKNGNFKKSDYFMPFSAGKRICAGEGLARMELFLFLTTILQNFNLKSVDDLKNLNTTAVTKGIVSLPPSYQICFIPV

CYP2C19 = CYP2C19 (Homo sapiens, UniProt P33261); assay: Inhibition of CYP2C19 in human liver microsomes using S-mephenytoin as substrate assessed as residual activity at 5 uM after 20 mins by HPLC analysis; assay type: ADME; settings: probe S-mephenytoin, read-out: Activity
CYP2D6 = CYP2D6 (Homo sapiens, UniProt P10635); assay: Inhibition of CYP2D6 in human liver microsomes using dextromethorphan as substrate assessed as residual activity at 5 uM after 20 mins by HPLC analysis; assay type: ADME; settings: probe dextromethorphan, read-out: Activity
CYP3A4 = CYP3A4 (Homo sapiens, UniProt P08684); assay: Inhibition of CYP3A4 in human liver microsomes using midazolam as substrate assessed as residual activity at 5 uM after 20 mins by HPLC analysis; assay type: ADME; settings: probe midazolam, read-out: Activity
Rattus norvegicus [3] = assay: In vivo inhibition of VAP-1 in Wistar rat plasma at 0.3 mg/kg, po after 1 hr in presence of [14C]-benzylamine by liquid scintillation counting analysis relative to control; assay type: functional
[4] = AUC in Beagle dog at 0.2 mg/kg, iv by LC-MS/MS analysis; assay type: ADME, organism-based, Canis lupus familiaris; settings: in vivo
[5] = Half life in Beagle dog at 0.2 mg/kg, iv by LC-MS/MS analysis; assay type: ADME, organism-based, Canis lupus familiaris; settings: in vivo
[6] = AUC in Sprague-Dawley rat at 1 mg/kg, iv by LC-MS/MS analysis; assay type: ADME, organism-based; settings: in vivo
[7] = Half life in Sprague-Dawley rat at 1 mg/kg, iv by LC-MS/MS analysis; assay type: ADME, organism-based; settings: in vivo
[8] = Volume of distribution at steady state in Sprague-Dawley rat at 1 mg/kg, iv by LC-MS/MS analysis; assay type: ADME, organism-based; settings: in vivo, read-out: Vdss
[9] = Total clearance in Sprague-Dawley rat at 1 mg/kg, iv by LC-MS/MS analysis; assay type: ADME, organism-based; settings: in vivo
[10] = Volume of distribution at steady state in Beagle dog at 0.2 mg/kg, iv by LC-MS/MS analysis; assay type: ADME, organism-based, Canis lupus familiaris; settings: in vivo, read-out: Vdss
[11] = Total clearance in Beagle dog at 0.2 mg/kg, iv by LC-MS/MS analysis; assay type: ADME, organism-based, Canis lupus familiaris; settings: in vivo
[12] = AUC in cynomolgus monkey at 0.2 mg/kg, iv by LC-MS/MS analysis; assay type: ADME, organism-based, Macaca fascicularis; settings: in vivo
[13] = Half life in cynomolgus monkey at 0.2 mg/kg, iv by LC-MS/MS analysis; assay type: ADME, organism-based, Macaca fascicularis; settings: in vivo
[14] = Volume of distribution at steady state in cynomolgus monkey at 0.2 mg/kg, iv by LC-MS/MS analysis; assay type: ADME, organism-based, Macaca fascicularis; settings: in vivo, read-out: Vdss
[15] = Total clearance in cynomolgus monkey at 0.2 mg/kg, iv by LC-MS/MS analysis; assay type: ADME, organism-based, Macaca fascicularis; settings: in vivo
[16] = AUC in Sprague-Dawley rat at 1 mg/kg, po by LC-MS/MS analysis; assay type: ADME, organism-based; settings: in vivo
[17] = AUC in Beagle dog at 0.2 mg/kg, po by LC-MS/MS analysis; assay type: ADME, organism-based, Canis lupus familiaris; settings: in vivo
[18] = AUC in cynomolgus monkey at 0.2 mg/kg, po by LC-MS/MS analysis; assay type: ADME, organism-based, Macaca fascicularis; settings: in vivo
[19] = Cmax in Sprague-Dawley rat at 1 mg/kg, po by LC-MS/MS analysis; assay type: ADME, organism-based; design: dose 1 mg/kg, route oral; settings: in vivo
[20] = Cmax in Beagle dog at 0.2 mg/kg, po by LC-MS/MS analysis; assay type: ADME, organism-based, Canis lupus familiaris; design: dose 0.2 mg/kg, route oral; settings: in vivo
[21] = Cmax in cynomolgus monkey at 0.2 mg/kg, po by LC-MS/MS analysis; assay type: ADME, organism-based, Macaca fascicularis; design: dose 0.2 mg/kg, route oral; settings: in vivo
[22] = Tmax in Sprague-Dawley rat at 1 mg/kg, po by LC-MS/MS analysis; assay type: ADME, organism-based; settings: in vivo
[23] = Tmax in Beagle dog at 0.2 mg/kg, po by LC-MS/MS analysis; assay type: ADME, organism-based, Canis lupus familiaris; settings: in vivo
[24] = Tmax in cynomolgus monkey at 0.2 mg/kg, po by LC-MS/MS analysis; assay type: ADME, organism-based, Macaca fascicularis; settings: in vivo
[25] = Oral bioavailability in Sprague-Dawley rat at 1 mg/kg by LC-MS/MS analysis; assay type: ADME, organism-based; settings: in vivo
[26] = Oral bioavailability in Beagle dog at 0.2 mg/kg by LC-MS/MS analysis; assay type: ADME, organism-based, Canis lupus familiaris; settings: in vivo
[27] = Oral bioavailability in cynomolgus monkey at 0.2 mg/kg by LC-MS/MS analysis; assay type: ADME, organism-based, Macaca fascicularis; settings: in vivo

CYP3A4, sequence (P08684 whole entry): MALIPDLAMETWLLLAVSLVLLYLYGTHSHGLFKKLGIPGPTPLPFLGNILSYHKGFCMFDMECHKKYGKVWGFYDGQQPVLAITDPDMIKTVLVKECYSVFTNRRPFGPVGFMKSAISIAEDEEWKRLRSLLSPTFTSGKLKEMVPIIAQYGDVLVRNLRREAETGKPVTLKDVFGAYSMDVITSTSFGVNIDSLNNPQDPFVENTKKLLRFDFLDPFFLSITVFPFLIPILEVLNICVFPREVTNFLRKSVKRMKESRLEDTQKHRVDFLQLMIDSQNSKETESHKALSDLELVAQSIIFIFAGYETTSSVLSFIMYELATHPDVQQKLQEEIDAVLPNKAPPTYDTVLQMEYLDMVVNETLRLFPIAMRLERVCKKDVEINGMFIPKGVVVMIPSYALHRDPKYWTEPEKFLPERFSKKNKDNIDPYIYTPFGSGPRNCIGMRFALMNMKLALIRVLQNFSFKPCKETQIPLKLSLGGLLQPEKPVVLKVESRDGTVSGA
CYP2D6, sequence (P10635 whole entry): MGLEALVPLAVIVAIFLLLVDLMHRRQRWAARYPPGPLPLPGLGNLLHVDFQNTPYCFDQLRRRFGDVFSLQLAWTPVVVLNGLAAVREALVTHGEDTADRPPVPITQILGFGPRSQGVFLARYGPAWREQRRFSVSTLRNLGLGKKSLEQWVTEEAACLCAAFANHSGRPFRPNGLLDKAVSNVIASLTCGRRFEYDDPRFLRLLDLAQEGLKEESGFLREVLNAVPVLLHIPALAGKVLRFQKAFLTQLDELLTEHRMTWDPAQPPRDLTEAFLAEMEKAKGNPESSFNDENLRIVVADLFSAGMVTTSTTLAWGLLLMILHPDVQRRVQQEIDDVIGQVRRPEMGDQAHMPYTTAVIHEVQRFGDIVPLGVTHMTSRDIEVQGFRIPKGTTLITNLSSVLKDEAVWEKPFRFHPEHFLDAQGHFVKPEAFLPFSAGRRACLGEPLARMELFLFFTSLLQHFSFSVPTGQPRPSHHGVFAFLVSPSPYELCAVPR
CYP2C19, sequence (P33261 whole entry): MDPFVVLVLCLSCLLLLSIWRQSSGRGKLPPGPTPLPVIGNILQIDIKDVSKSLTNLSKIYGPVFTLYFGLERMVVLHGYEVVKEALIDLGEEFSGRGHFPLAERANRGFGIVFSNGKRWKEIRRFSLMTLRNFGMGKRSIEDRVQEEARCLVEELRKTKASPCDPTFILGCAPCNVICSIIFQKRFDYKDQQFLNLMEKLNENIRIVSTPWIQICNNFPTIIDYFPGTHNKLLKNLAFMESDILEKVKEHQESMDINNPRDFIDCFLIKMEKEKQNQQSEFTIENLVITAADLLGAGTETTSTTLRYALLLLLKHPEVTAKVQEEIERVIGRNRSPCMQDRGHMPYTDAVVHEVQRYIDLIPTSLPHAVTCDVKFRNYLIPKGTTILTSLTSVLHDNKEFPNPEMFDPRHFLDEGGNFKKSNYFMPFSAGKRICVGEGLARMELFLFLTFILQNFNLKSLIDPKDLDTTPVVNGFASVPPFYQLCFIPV

solubility at 20 h, 130 µM [2]: ≥ 100 µM
activity at 20 min, 5 µM (CYP1A2): 99%
activity at 20 min, 5 µM (CYP2C8): 91%
activity at 20 min, 5 µM (CYP2C19): 99%
activity at 20 min, 5 µM (CYP2D6): 95%
activity at 20 min, 5 µM (CYP3A4): 85%
AUC [4]: 380 ng·h/mL
half-life [5]: 8.9 h
AUC [6]: 3200 ng·h/mL
half-life [7]: 3.3 h
Vd [8]: 1.06 L/kg
clearance [9]: 5.2 mL/min/kg
Vd [10]: 4.43 L/kg
clearance [11]: 8.9 mL/min/kg
AUC [12]: 5350 ng·h/mL
half-life [13]: 64 h
Vd [14]: 1.39 L/kg
clearance [15]: 0.7 mL/min/kg
AUC [16]: 2320 ng·h/mL
AUC [17]: 297 ng·h/mL
AUC [18]: 4510 ng·h/mL
Cmax [19]: 401 ng/mL
Cmax [20]: 29.9 ng/mL
Cmax [21]: 201 ng/mL
Tmax [22]: 0.8 h
Tmax [23]: 0.8 h
Tmax [24]: 2.7 h
bioavailability [25]: 73%
bioavailability [26]: 78%
bioavailability [27]: 85%
Compound: Cc1ccc(OC2CN(c3cccc(COC(=O)NC(=N)N)c3F)C2)cn1.O=C(O)C(O)C(O)C(=O)O
inhibition in vivo at 0.3 mg/kg (Rattus norvegicus [1]): 74%
inhibition in vivo at 0.3 mg/kg (Rattus norvegicus [3]): 92%

From ChEMBL document CHEMBL4043269, “Synthesis and structure activity relationships of carbamimidoylcarbamate derivatives as novel vascular adhesion protein-1 inhibitors” (Bioorg Med Chem, 2017)
